Results: US11117905B2, “Bisaryl heterocycles as NRF2 activators” (GLAXOSMITHKLINE INTELLECTUAL PROPERTY DEVELOPMENT LIMITED, priority 2016, dated 2021)

tested on: NQO1 specific enzyme activity in BEAS-2B cells (marker for NRF2 activation); assay: BEAS-2B NQO1 MTT Assay; assay type: cell-based; settings: Homo sapiens, BEAS-2B, 48 h, NQO1 specific activity induction, 48 hours with compound
Text: NAD(P)H:quinone oxidoreductase 1 (NQO1), also called DT diaphorase, is a homodimeric FAD-containing enzyme that catalyzes obligatory NAD(P)H-dependent two-electron reductions of quinones and protects cells against the toxic and neoplastic effects of free radicals and reactive oxygen species arising from one-electron reductions. The transcription of NQO1 is finely regulated by NRF2, and thus NQO1 activity is a good marker for NRF2 activation. On day one, frozen BEAS-2B cells (ATCC) were thawed in a water bath, counted, and re-suspended at a concentration of 250,000 cells/mL. Fifty microliters of cells were plated in 384 well black clear-bottomed plates. Plates were incubated at 37° C., 5% CO2 overnight. On day two, plates were centrifuged and 50 nL of compound or controls were added to the cells. Plates were then incubated at 37° C., 5% CO2 for 48 hours. On day four, medium was aspirated from the plate and crude cell lysates were made by adding 13 uL of 1× Cell Signaling Technologies lysis buffer with 1 Complete, Mini, EDTA-free Protease Inhibitor Tablet (Roche) for each 10 mL of lysis buffer. After lysis plates were incubated for 20 minutes at room temperature. Two microliters of lysate were removed for use in Cell Titer Glo assay (Promega) and MTT cocktail was prepared (Prochaska et. al. 1998) for measurement of NQO1 activity. Fifty microliters of MTT cocktail is added to each well, plate is centrifuged, and analyzed on an Envision plate reader (Perkin Elmer) using Absorbance 570 nm label for 30 minutes. Product formation was measured kinetically and the pEC50 of NQO1 specific activity induction was calculated by plotting the change in absorbance (Delta OD/min) versus the log of compound concentration followed by 3-parameter fitting.
pEC50 is the negative log of the EC50.
EC50s<1 nM (+++++), EC50s 1 nM-10 nM (++++), EC50s 10 nM-100 nM (+++), EC50s 100 nM-1 uM (++), EC50s 1 uM-10 uM (+), EC50s>10 uM (−), or were not determined (ND).

| SMILES | EC50 |
| --- | --- |
| CC[C@@H]1CN(Cc2cc([C@@H](CC(=O)O)c3ccc4c(nnn4CC)c3C)sc2Cl)S(=O)(=O)c2cnccc2O1 [Example 1, (S)-3-(5-Chloro-4-(((R)-4-ethyl-1,1-dioxido-3,4-dihydro-2H-pyrido[4,3-b][1,4,5]oxathiazepin-2-yl)methyl)thiophen-2-yl)-3-(1-ethyl-4-methyl-1H-benzo[d][1,2,3]triazol-5-yl)propanoic acid] | 100 to 1000 nM |
| CC[C@@H]1CN(Cc2cc([C@@H](CC(=O)O)c3ccc4c(nnn4CC)c3C)sc2Cl)S(=O)(=O)c2cccnc2O1 [Example 2, (S)-3-(5-Chloro-4-(((R)-4-ethyl-1,1-dioxido-3,4-dihydro-2H-pyrido[2,3-b][1,4,5]oxathiazepin-2-yl)methyl)thiophen-2-yl)-3-(1-ethyl-4-methyl-1H-benzo[d][1,2,3]triazol-5-yl)propanoic acid] | 1000 to 10000 nM |
| CC[C@@H]1CN(Cc2cc([C@@H](c3ccc4c(nnn4CC)c3C)C(C)(C)C(=O)O)sc2Cl)S(=O)(=O)c2ccccc2O1 [Example 3, (S)-3-(5-Chloro-4-(((R)-4-ethyl-1,1-dioxido-3,4-dihydro-2H-benzo[b][1,4,5]oxathiazepin-2-yl)methyl)thiophen-2-yl)-3-(1-ethyl-4-methyl-1H-benzo[d][1,2,3]triazol-5-yl)-2,2-dimethylpropanoic acid] | < 1 nM |
| CC[C@@H]1CN(Cc2cc([C@H](c3ccc4c(nnn4CC)c3C)C(C)(C)C(=O)O)sc2Cl)S(=O)(=O)c2ccccc2O1 [Example 4, (R)-3-(5-Chloro-4-(((R)-4-ethyl-1,1-dioxido-3,4-dihydro-2H-benzo[b][1,4,5]oxathiazepin-2-yl)methyl)thiophen-2-yl)-3-(1-ethyl-4-methyl-1H-benzo[d][1,2,3]triazol-5-yl)-2,2-dimethylpropanoic acid] | 100 to 1000 nM |
| CC[C@@H]1CN(Cc2cc([C@H](CC(=O)O)c3ccc4c(nnn4CC)c3C)sc2Cl)S(=O)(=O)c2ccccc2O1 [Example 5, (R)-3-(5-Chloro-4-(((R)-4-ethyl-1,1-dioxido-3,4-dihydro-2H-benzo[b][1,4,5]oxathiazepin-2-yl)methyl)thiophen-2-yl)-3-(1-ethyl-4-methyl-1H-benzo[d][1,2,3]triazol-5-yl)propanoic acid] | 10 to 100 nM |
| CC[C@@H]1CN(Cc2cc([C@H](CC(=O)O)c3ccc4c(nnn4CC)c3C)sc2Cl)S(=O)(=O)c2cccnc2O1 [Example 6, (R)-3-(5-Chloro-4-(((R)-4-ethyl-1,1-dioxido-3,4-dihydro-2H-pyrido[2,3-b][1,4,5]oxathiazepin-2-yl)methyl)thiophen-2-yl)-3-(1-ethyl-4-methyl-1H-benzo[d][1,2,3]triazol-5-yl)propanoic acid] | 10 to 100 nM |
| CC[C@@H]1CN(Cc2cc([C@@H](c3ccc4c(nnn4CC)c3C)C(C)(C)C(=O)O)sc2C)S(=O)(=O)c2cccnc2O1 [Example 7, (S)-3-(4-(((R)-4-Ethyl-1,1-dioxido-3,4-dihydro-2H-pyrido[2,3-b][1,4,5]oxathiazepin-2-yl)methyl)-5-methylthiophen-2-yl)-3-(1-ethyl-4-methyl-1H-benzo[d][1,2,3]triazol-5-yl)-2,2-dimethylpropanoic acid] | < 1 nM |
| CCn1nnc2c(C)c([C@H](c3cc(CN4CC(C)(C)Oc5ncccc5S4(=O)=O)c(C)s3)C(C)(C)C(=O)O)ccc21 [Example 8, (S)-3-(4-((4,4-Dimethyl-1,1-dioxido-3,4-dihydro-2H-pyrido[2,3-b][1,4,5]oxathiazepin-2-yl)methyl)-5-methylthiophen-2-yl)-3-(1-ethyl-4-methyl-1H-benzo[d][1,2,3]triazol-5-yl)-2,2-dimethylpropanoic Acid] | 1 to 10 nM |
| CC[C@@H]1CN(Cc2cc([C@@H](c3ccc4c(nnn4CC)c3C)C(C)(C)C(=O)O)sc2C)S(=O)(=O)c2cnccc2O1 [Example 9, (S)-3-(4-(((R)-4-Ethyl-1,1-dioxido-3,4-dihydro-2H-pyrido[4,3-b][1,4,5]oxathiazepin-2-yl)methyl)-5-methylthiophen-2-yl)-3-(1-ethyl-4-methyl-1H-benzo[d][1,2,3]triazol-5-yl)-2,2-dimethylpropanoic Acid] | < 1 nM |
| CC[C@@H]1CN(Cc2cc([C@@H](c3ccc4c(nnn4CC)c3C)C(C)(C)C(=O)O)sc2C)S(=O)(=O)c2ccccc2O1 [Example 10, (S)-3-(4-(((R)-4-Ethyl-1,1-dioxido-3,4-dihydro-2H-benzo[b][1,4,5]oxathiazepin-2-yl)methyl)-5-methylthiophen-2-yl)-3-(1-ethyl-4-methyl-1H-benzo[d][1,2,3]triazol-5-yl)-2,2-dimethylpropanoic Acid] | < 1 nM |
| CC[C@@H]1CN(Cc2cc([C@H](c3ccc4c(nnn4CC)c3C)C(C)(C)C(=O)O)sc2C)S(=O)(=O)c2ccccc2O1 [Example 11, (R)-3-(4-(((R)-4-Ethyl-1,1-dioxido-3,4-dihydro-2H-benzo[b][1,4,5]oxathiazepin-2-yl)methyl)-5-methylthiophen-2-yl)-3-(1-ethyl-4-methyl-1H-benzo[d][1,2,3]triazol-5-yl)-2,2-dimethylpropanoic Acid] | 10 to 100 nM |
| CCC1CCN(Cc2nccn2Cc2cc([C@@H](c3ccc4c(nnn4CC)c3C)C(C)(C)C(=O)O)sc2C)CC1 [Example 12, (S)-3-(1-Ethyl-4-methyl-1H-benzo[d][1,2,3]triazol-5-yl)-3-(4-((2-((4-ethylpiperidin-1-yl)methyl)-1H-imidazol-1-yl)methyl)-5-methylthiophen-2-yl)-2,2-dimethylpropanoic acid] | 1 to 10 nM |
| CCn1nnc2c(C)c([C@H](c3cc(CN4CC(=O)N(C)CC(C)(C)C4)c(C)s3)C(C)(C)C(=O)O)ccc21 [Example 15, (S)-3-(1-Ethyl-4-methyl-1H-benzo[d][1,2,3]triazol-5-yl)-2,2-dimethyl-3-(5-methyl-4-((4,6,6-trimethyl-3-oxo-1,4-diazepan-1-yl)methyl)thiophen-2-yl)propanoic Acid] | 1 to 10 nM |
| CCn1nnc2c(C)c([C@H](c3cc(CN4C[C@H](C)Cc5ncccc5S4(=O)=O)c(C)s3)C(C)(C)C(=O)O)ccc21 [Example 16, (S)-3-(1-Ethyl-4-methyl-1H-benzo[d][1,2,3]triazol-5-yl)-2,2-dimethyl-3-(5-methyl-4-(((R)-4-methyl-1,1-dioxido-4,5-dihydropyrido[2,3-f][1,2]thiazepin-2(3H)-yl)methyl)thiophen-2-yl)propanoic Acid] | 1 to 10 nM |
| CCn1nnc2c(C)c([C@H](c3cc(CN4C[C@H](C)Cc5ccccc5S4(=O)=O)c(C)s3)C(C)(C)C(=O)O)ccc21 [Example 17, (S)-3-(1-Ethyl-4-methyl-1H-benzo[d][1,2,3]triazol-5-yl)-2,2-dimethyl-3-(5-methyl-4-(((R)-4-methyl-1,1-dioxido-4,5-dihydrobenzo[f][1,2]thiazepin-2(3H)-yl)methyl)thiophen-2-yl)propanoic Acid] | 1 to 10 nM |

same assay, conditions: NQO1 specific activity induction, 48 hours with compound

| SMILES | EC50 |
| --- | --- |
| CC[C@@H]1CN(Cc2nc(C(c3ccc4c(nnn4CC)c3C)C(C)(C)C(=O)O)sc2C)S(=O)(=O)c2ccccc2O1 (single isomer, unassigned; isomer 1) [Example 13, (R or S)-3-(4-(((R)-4-Ethyl-1,1-dioxido-3,4-dihydro-2H-benzo[b][1,4,5]oxathiazepin-2-yl)methyl)-5-methylthiazol-2-yl)-3-(1-ethyl-4-methyl-1H-benzo[d][1,2,3]triazol-5-yl)-2,2-dimethylpropanoic Acid Isomer 1] | 1 to 10 nM |
| CC[C@@H]1CN(Cc2cc(C(CC(=O)O)c3ccc4c(nnn4CC)c3C)sc2C)S(=O)(=O)c2ccccc2O1 (single isomer, unassigned; isomer 1) [Example 20, (R or S)-3-(4-(((R)-4-Ethyl-1,1-dioxido-3,4-dihydro-2H-benzo[b][1,4,5]oxathiazepin-2-yl)methyl)-5-methylthiophen-2-yl)-3-(1-ethyl-4-methyl-1H-benzo[d][1,2,3]triazol-5-yl)propanoic acid Isomer 1] | 10 to 100 nM |
| CC[C@@H]1CN(Cc2nc(C(c3ccc4c(nnn4CC)c3C)C(C)(C)C(=O)O)sc2C)S(=O)(=O)c2ccccc2O1 (single isomer, unassigned; isomer 2) [Example 14, (R or S)-3-(4-(((R)-4-Ethyl-1,1-dioxido-3,4-dihydro-2H-benzo[b][1,4,5]oxathiazepin-2-yl)methyl)-5-methylthiazol-2-yl)-3-(1-ethyl-4-methyl-1H-benzo[d][1,2,3]triazol-5-yl)-2,2-dimethylpropanoic Acid Isomer 2] | 10 to 100 nM |
| CC[C@@H]1CN(Cc2cc(C(CC(=O)O)c3ccc4c(nnn4CC)c3C)sc2C)S(=O)(=O)c2ccccc2O1 (single isomer, unassigned; isomer 2) [Example 21, (R or S)-3-(4-(((R)-4-Ethyl-1,1-dioxido-3,4-dihydro-2H-benzo[b][1,4,5]oxathiazepin-2-yl)methyl)-5-methylthiophen-2-yl)-3-(1-ethyl-4-methyl-1H-benzo[d][1,2,3]triazol-5-yl)propanoic Acid Isomer 2] | 100 to 1000 nM |
